These results are taken from US20250114367A1, “METHOD OF TREATING HAIR LOSS DISORDERS” (Sun Pharmaceutical Industries, Inc., priority 2023, published 2025).

Format in all cases: in vivo, human
Assay [1] has as its system adult subjects with moderate to severe AA. Nature of the assay: Phase III trial: Hair Quality Patient Reported Outcome (QPRO). Conditions: Weeks 12, 16, 20, and 24. As for the experimental part:
(§1) A Phase III trial was conducted to assess the efficacy and safety of CTP-543 in adult subjects with moderate to severe AA. Approximately 440 adult male and female subjects 18 to 65 years of age, inclusive, with moderate to severe AA participated in the study. Subjects with definitive diagnosis of AA, and at least 50% hair loss, as defined by a SALT score ≥50, who met all of the inclusion criteria and none of the exclusion criteria participated in the study.
(§2) The Screening Period lasted up to 28 days prior to initiation of study drug. […] Randomization was stratified by scalp hair loss into 1 of the following 2 categories: 1) partial scalp hair loss (SALT ≥50 and <95), 2) complete or near complete scalp hair loss (SALT ≥95).
(§3) Additional secondary efficacy endpoints included the following: • Relative change in SALT scores from baseline at Weeks 4, 8, 12, 16, 20, and 24. • Percentage of responders (defined as “much improved” or “very much improved”) using the Clinical Global Impression of Improvement (CGI-I) at Weeks 12, 16, 20, and 24. • Percentage of responders (defined as “much improved” or “very much improved”) using the Patient Global Impression of Improvement (PGI-I) at Weeks 12, 16, 20, and 24. • Change from baseline in the Clinical Global Impression of Severity (CGI-S) at Weeks 12, 16, 20, and 24. • Change from baseline in the Patient Global Impression of Severity (PGI-S) at Weeks 12, 16, 20, and 24. • Change from baseline on the Brigham Eyebrow Tool for Alopecia (BETA) score at Weeks 12 and 24. • Change from baseline on the Brigham Eyelash Tool for Alopecia (BELA) score at Weeks 12 and 24. • Percentage of subjects achieving at least a 75% relative reduction in SALT score from baseline at Weeks 12 and 24. • Percentage of subjects achieving at least a 90% relative reduction in SALT score from baseline at Weeks 12 and 24. • Percentage of responders (defined as “satisfied” or “very satisfied”) on the SPRO scale at Weeks 12, 16, and 20. • Change from baseline in the SPRO scale at Weeks 12, 16, 20, and 24. • Percentage of subjects achieving a ≥2-point change from baseline in the SPRO scale at Weeks 12, 16, 20, and 24. • Change from baseline on the individual items of the Hair Quality Patient Reported Outcome (QPRO) scale at Weeks 12, 16, 20, and 24. • Change from baseline in the depression scale of the Hospital Anxiety and Depression Scale (HADS) at Week 24. • Change from baseline in the anxiety scale of the HADS at Week 24. • Percentage of subjects achieving an absolute SALT score of ≤20 at Week 4. • Percentage of subjects achieving an absolute SALT score of ≤10 at Week 24
The individual items of satisfaction with thickness of hair coverage, satisfaction with evenness of hair coverage, satisfaction with eyebrows, and satisfaction with eyelashes are rated on a scale of 1 to 5. A decrease from baseline in the QPRO score represents improvement. For each item and time point, treatment group differences favored CTP-543 over placebo.

Assay [2] shares this test system. Nature of the assay: Phase III trial: Patient Global Impression of Improvement (PGI-I). Particulars: non-missing data. As for the experimental part:
The PGI-I was assessed by the subject. Compared to the subject's AA prior to treatment at baseline, the subject's current state of AA was assessed according to his/her perceived change. The subject selected 1 of 7 numeric choices representing “Very Much Worse” to “Very Much Improved.” If a subject was unable to attend an in-person clinic visit due to COVID-19, the PGI-I was to be performed via a virtual visit with video capability.
as §1, §2, §3
Detailed data are described below.

For assay [3] the test system is unchanged. Nature of the assay: Phase III trial: Brigham Eyelash Tool for Alopecia (BELA). As for the experimental part: The BELA is a clinician-rated scale developed by dermatologists at Brigham and Women's Hospital that assesses the total eyelash hair present Manjaly, P. et al., Development and validation of the Brigham Eyelash Tool for Alopecia (BELA): A measure of eyelash alopecia areata, J Am Acad Dermatol (2021) 1-2. The BELA is calculated based on grade values (range 0 to 3) and distribution. The BELA score is the sum of the individual scores for the left and right eyes (range 0 (absent) to 6). The same expert panel of certified raters at Brigham and Women's Hospital who performed the BETA assessment also performed central readings based on photographs of the eyelashes and determined a score for each subject with eyelash involvement following each visit where an assessment of eyelash hair presence was assessed. The BELA was performed at baseline, Week 12, and Week 24. If a subject was unable to attend an in-person clinic visit due to COVID-19, the BELA may not have been performed due to the inability to take photographs of the eyelashes.
as §1
The Screening Period lasted up to 28 days prior to initiation of study drug. […] Randomization was stratified by scalp hair loss into 1 of the following 2 categories: 1) partial scalp hair loss (SALT ≥50 and <95), 2) complete or near complete scalp hair loss (SALT ≥95). […]

On to `[2H]C1([2H])C([C@@H](CC#N)n2cc(-c3ncnc4[nH]ccc34)cn2)C([2H])([2H])C([2H])([2H])C1([2H])[2H]` [CTP-543, (R)-3-(4-(7H-pyrrolo[2,3-d]pyrimidin-4-yl)-1H-pyrazol-1-yl)-3-(cyclopentyl-2,2,3,3,4,4,5,5-d8) propanenitrile], for which the entries for the “QPRO satisfaction with evenness of hair coverage, treatment group difference from placebo” value in assay [1] (8 mg BID) and in assay [1] (12 mg BID) were −1.3 to −0.9 and −1.5 to −1.0, respectively. Moreover, the entries for the “QPRO satisfaction with eyebrows, treatment group difference from placebo” value in assay [1] (8 mg BID) and in assay [1] (12 mg BID) were −1.2 to −1.0 and −1.5 to −1.1, respectively. Moreover, the entries for the “QPRO satisfaction with eyelashes, treatment group difference from placebo” value in assay [1] (8 mg BID) and in assay [1] (12 mg BID) were −1.2 to −0.9 and −1.4 to −0.9, respectively. The results for the “QPRO satisfaction with thickness of hair coverage, treatment group difference from placebo” value in assay [1] (8 mg BID) and in assay [1] (12 mg BID) were −1.3 to −1.0 and −1.6 to −1.1, respectively. The “percentage of PGI-I responders (very much improved or much improved)” value is listed as 50.9% in assay [2] (Week 24, 8 mg BID); 68.3% in assay [2] (Week 24, 12 mg BID); 43.3% in assay [2] (week 12, 8 mg BID); 49.2% in assay [2] (week 12, 12 mg BID); 46.2% in assay [2] (week 16, 8 mg BID); 59.8% in assay [2] (week 16, 12 mg BID). Moreover, the “percentage of PGI-I responders (very much improved or much improved)” value came to 48.7% in assay [2] (week 20, 8 mg BID) and 64.4% in assay [2] (week 20, 12 mg BID). In addition, the “BELA score, LS mean change from baseline” value amounted to 0.9 in assay [3] (Week 12, 8 mg BID); 1.0 in assay [3] (Week 12, 12 mg BID); 1.4 in assay [3] (Week 24, 8 mg BID); 1.5 in assay [3] (Week 24, 12 mg BID).
